Among the test systems are A498; CAKI-1; CCRF-CEM; COLO 205; DU-145; HCT-15; Hs-578T; KM12; MDA-MB-231; Malme-3M; NCI-H226; NCI-H460; NCI/ADR-RES; OVCAR-8; SK-OV-3; SN12C; SNB-19; SR; SW-620; U-251.
Common to all, as to test: growth of human tumour cells (NCI), 48 h

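1) Cells in 96-well plates. 2) Compound, 48 h, 5 concentrations. 3) Linear interpolation between surrounding doses. 4) Unreached endpoint = highest concentration. Here, GI50 denotes the concentration required for 50% inhibition of growth.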 The source made the active and inactive calls. Rule as the data show it: active = GI50 up to about 1.1 µM and inactive = higher.

With `NCCC1(N)CCNCC1`, the GI50 is > 100 µM (inactive) in the assay on A498; > 100 µM (inactive) with CAKI-1; > 100 µM (inactive) in the assay on CCRF-CEM; > 100 µM (inactive) with COLO 205; > 100 µM (inactive) with DU-145; above 100 µM in the assay with HCT-15. For the same compound, the GI50 in the assay on Hs-578T, in the assay on KM12, in the assay on MDA-MB-231, with Malme-3M, with NCI-H226 and with NCI-H460 was > 100 µM (inactive) throughout. The GI50 in the assay with NCI/ADR-RES, with OVCAR-8, in the assay with SK-OV-3, with SN12C, in the assay with SNB-19 and in the assay on SR was > 100 µM (inactive) in each case. Also, the GI50 with SW-620 and with U-251 was > 100 µM (inactive) each time.
Regarding `O=c1ccn2n1CCCCC2`, the GI50 was > 100 µM (inactive) with A498; > 100 µM (inactive) in the assay with CAKI-1; > 100 µM (inactive) in the assay with CCRF-CEM; > 100 µM (inactive) with COLO 205; > 100 µM (inactive) in the assay with DU-145; above 100 µM in the assay with HCT-15. In addition, the GI50 in the assay on Hs-578T, in the assay with KM12, with MDA-MB-231, with Malme-3M, with NCI-H226 and with NCI-H460 was > 100 µM (inactive) each time. The GI50 in the assay on NCI/ADR-RES, in the assay on OVCAR-8, with SK-OV-3, in the assay with SN12C, with SNB-19 and with SR was > 100 µM (inactive) each time. For the same compound, the GI50 with SW-620 and in the assay on U-251 was > 100 µM (inactive) each time.
For the compound `O=c1cc(N2CCOCC2)oc2c(-c3ccccc3)cccc12` [LY-294002], the GI50 in the assay with A498 is 2.48 µM (inactive); in the assay with CAKI-1 it was 2.39 µM (inactive); in the assay on CCRF-CEM it was 39.1 µM (inactive); in the assay with COLO 205, 13.5 µM (inactive); in the assay with DU-145, 12.4 µM (inactive); with HCT-15, 7.91 µM. The GI50 was 1.9 µM (inactive) with Hs-578T; 12.1 µM (inactive) in the assay with KM12; 3.13 µM (inactive) with MDA-MB-231; 0.286 µM (active) with Malme-3M; 3.93 µM (inactive) in the assay on NCI-H226; 11.4 µM (inactive) in the assay on NCI-H460. Further, the GI50 in the assay with NCI/ADR-RES was 4.76 µM (inactive); in the assay with OVCAR-8 it was 4.58 µM (inactive); with SK-OV-3, 14.2 µM (inactive); in the assay on SN12C, 5.36 µM (inactive); in the assay with SNB-19 it was 14.6 µM (inactive); in the assay on SR, 3.36 µM (inactive). Further, the GI50 in the assay with SW-620 is 21.7 µM (inactive); in the assay on U-251, 19.5 µM (inactive).

The values above are taken from ChEMBL document CHEMBL1201862, “PubChem BioAssay data set” (2004).
